In US6274333A (Sanofi-Synthelabo, priority 1997, dated 2001):
Where two headings read alike, the source gives them in different places.

Assays:
hNT-R2 [1] = target: T1, hNT-R2 (Homo sapiens, UniProt O95665); assay: intracellular Ca^2+ concentration in CHO-2076.62 (hNT-R2) line; format: cell-based; settings: same response in the absence of extracellular calcium
Source text: In principle, this increase in the concentration of intracellular calcium ions is due to the release of internal reservoirs and not to the influx of extracellular calcium since the same response was found in the absence of extracellular calcium.

[2] = system: hypothermia induced by NT; settings: rats; cited from earlier work
rNT-R2 receptor [3] = target: T2, rNT-R2 receptor (Rattus norvegicus, UniProt Q63384); assay: displacement of ^125 I-neurotensin from rNT-R2 expressed in COS cells; format: binding
T2 construct: rNT-R2 receptor expressed in COS-3 cells after transfection of the cloned cDNA; expressed in transfected cells; vector pSVL-rNT-R2
T2 sequence (Q63384 1-416): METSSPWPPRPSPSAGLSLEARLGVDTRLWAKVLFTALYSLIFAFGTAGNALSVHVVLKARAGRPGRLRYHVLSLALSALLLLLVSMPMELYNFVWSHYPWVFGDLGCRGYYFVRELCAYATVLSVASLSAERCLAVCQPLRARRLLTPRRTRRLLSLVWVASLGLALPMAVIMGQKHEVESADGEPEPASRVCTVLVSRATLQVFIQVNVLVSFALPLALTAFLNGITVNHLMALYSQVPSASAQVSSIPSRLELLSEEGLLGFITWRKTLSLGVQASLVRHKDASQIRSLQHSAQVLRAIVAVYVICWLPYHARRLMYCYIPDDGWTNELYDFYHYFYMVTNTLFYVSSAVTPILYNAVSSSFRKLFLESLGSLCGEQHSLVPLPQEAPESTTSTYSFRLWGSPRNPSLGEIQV
Experimental: BSA (bovine serum albumin), PMSF (phenylmethylsulphonyl fluoride) and 1,10-phenanthroline are marketed by Sigma. […] Levocabastine was obtained from Janssen Pharmaceutica.
(§1) The pharmacological characterization was carried out using […] cells transfected with pSVL-rNT-R2 recombinant vector. Three days after transfection, the cell monolayers were washed twice with 50 mM Tris-HCl pH 7.5, 0.1% BSA, 0.1% NaN3, 1 mM 1,10-phenanthroline (binding buffer) before binding to the radioligand.
After incubation for one hour at room temperature, the medium was aspirated and the cell monolayers were washed twice with the incubation buffer. Finally, the cells were solubilized with 1 ml of 1N NaOH and the bound radioactivity was evaluated.

cloned receptor = settings: cited from earlier work
hNT-R2 [4] = target: T1, hNT-R2; assay: microphysiometry (Cytosensor) with CHO 2076.62 (hNT-R2) cells; format: cell-based
Experimental: The microphysiometry experiments were carried out with the Cytosensor Microphysiometer (Molecular Devices, Menlo Park, Calif.). Each chamber of the instrument containing 3×10^5 cells was perfused with DMEM medium (Sigma, St. Louis, Mo.) containing 40 mM NaCl at 37° C. The rate of acidification was measured every 60 seconds (flowrate […]). 15-second injections of agonists were carried out. For the inhibition experiments, cells were exposed to the antagonists for 30 minutes before being perfused with the agonist.

analgesia induced by NT [5] = settings: mice; cited from earlier work
analgesia induced by NT [6] = settings: rats; cited from earlier work
[7] = system: hypothermia induced by NT; settings: mice; cited from earlier work
rNT-R2 receptor [8] = target: T2, rNT-R2 receptor; assay: saturation binding of ^125 I-neurotensin to rNT-R2 expressed in COS cells; settings: Scatchard analysis
Experimental: BSA (bovine serum albumin), PMSF (phenylmethylsulphonyl fluoride) and 1,10-phenanthroline are marketed by Sigma. The selective, non-peptide antagonist SR 48692 was synthesized by Sanofi Recherche, France. Levocabastine was obtained from Janssen Pharmaceutica.
as §1
Saturation experiments were carried out in 1 ml of binding buffer containing ^125 I-neurotensin over a range from 0.05 to 14.5 nM. After incubation for one hour at room temperature, the medium was aspirated and the cell monolayers were washed twice with the incubation buffer. Finally, the cells were solubilized with 1 ml of 1N NaOH and the bound radioactivity was evaluated. The non-specific binding was defined as being the binding in the presence of a (500-fold) excess of unlabelled ligand and, under these conditions, was less than 1% of the total radioactivity.

[9] = system: untransfected cells, or cells transfected with the DNA vector alone; assay: binding of radiolabelled neurotensin to untransfected or vector-transfected COS cells
HT29 cells = settings: antagonism of neurotensin effect in vitro, read-out: IC50, formation of IP1 in HT29 cells; cited from earlier work
rotation in mice = settings: cited from earlier work
type-1 receptor = settings: cited from earlier work
NT-1R = settings: CHO cells transfected with NT-1R; cited from earlier work
[10] = system: release of acetylcholine in rat striatum; settings: cited from earlier work
hNT-R2 [11] = target: T1, hNT-R2; assay: inositol phosphate (IP3) production in CHO-2076.62 (hNT-R2) line; format: cell-based
Source text: The CHO-2076.62 (hNT-R2) line was used to study the signalization mechanisms involved.

[12] = 0.2 nM ^125 I-neurotensin, rNT-R2 in COS cells, read-out: IC50 (apparent), competition with ^125 I-neurotensin
[13] = binding with the type-1 receptor

T1 sequence (O95665 whole entry A54V): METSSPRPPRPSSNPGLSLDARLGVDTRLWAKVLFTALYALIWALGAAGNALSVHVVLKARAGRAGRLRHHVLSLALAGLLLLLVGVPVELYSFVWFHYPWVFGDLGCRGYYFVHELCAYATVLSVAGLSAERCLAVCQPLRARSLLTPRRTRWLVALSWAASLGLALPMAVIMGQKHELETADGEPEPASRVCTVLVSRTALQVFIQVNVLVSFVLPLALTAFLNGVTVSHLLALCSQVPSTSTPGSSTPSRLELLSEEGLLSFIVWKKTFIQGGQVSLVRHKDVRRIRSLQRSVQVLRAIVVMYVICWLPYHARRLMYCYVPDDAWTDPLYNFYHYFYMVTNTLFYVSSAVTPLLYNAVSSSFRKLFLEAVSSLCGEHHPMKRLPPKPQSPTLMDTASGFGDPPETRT

In the case of `COc1cccc(OC)c1-c1cc(C(=O)NC2(C(=O)O)C3CC4CC(C3)CC2C4)nn1-c1ccnc2cc(Cl)ccc12` (centres unmarked) [SR 48692, {2-[(1-(7-chloro-4-quinolinyl)-5-(2,6-di-methoxyphenyl)pyrazol-3-yl)carbonylamino]tricyclo-(3.3.1.1.3.7)decane-2-carboxylic} acid], the “intracellular concentration of Ca^2+ response” value (hNT-R2 [1]) is listed as “significant response”, the “effect on hypothermia induced by NT” value [2] is listed as “insensitive” and the IC50 (rNT-R2 receptor [3]; [12]) is listed as 22.5 nM. For the same compound, the “inhibition of the binding of NT to the cloned receptor” value (cloned receptor) was “inhibits the binding of NT to the cloned receptor”, the “inhibition of the agonist effect of SR142948” value (hNT-R2 [4]; CHO 2076.62 (hNT-R2), SR48692 at doses at which there is no agonist effect) was “antagonized” and the “relative effectiveness at inhibiting the effect of SR142948” value (hNT-R2 [4]; inhibition curves, SR48692 versus neurotensin) was “more effective than neurotensin”. The “effect on analgesia induced by NT” value (analgesia induced by NT [5]) was “insensitive”, the “effect on analgesia induced by NT” value (analgesia induced by NT [6]) was “insensitive” and the “effect on hypothermia induced by NT” value [7] was “insensitive”.

In the case of “^125 I-neurotensin: ^125 I-[Tyr^3 ]-labelled neurotensin marketed by NEN”, the “binding capacity (Bmax)” value (rNT-R2 receptor [8]) is reported as 180,000±3000 sites per cell and the “binding to untransfected cells or cells transfected with vector alone” value [9] is reported as “did not bind”.

With `C[C@@H]1CN([C@H]2CC[C@](C#N)(c3ccc(F)cc3)CC2)CC[C@]1(C(=O)O)c1ccccc1` [levocabastine] the IC50 (rNT-R2 receptor [3]) was 10 nM.

Work on “neuromedin N: ligand related to neurotensin, used as competitor (IPYIL; Neuromedin N; UniProt P30990 144-148, looked up)” yielded an IC50 (rNT-R2 receptor [3]; [12]) of 5.1 nM.

In the case of `COc1cccc(OC)c1-c1cc(C(=O)NC2(C(=O)O)C3CC4CC(C3)CC2C4)nn1-c1ccc(C(=O)N(C)CCCN(C)C)cc1C(C)C.Cl` (centres unmarked) [SR 142948 A, 2-{(5-(2,6-dimethoxyphenyl)-1-(4-(N-(3-dimethylamino-propyl)-N-methylcarbamoyl)-2-isopropylphenyl)-1H-pyrazole-3-carbonyl)amino}adamantane-2-carboxylic acid hydrochloride], the IC50 (HT29 cells) is given as 3.9 nM, the “antagonism of neurotensin effect: rotation” value (rotation in mice) is given as “antagonizes” and the “effect on hypothermia induced by NT” value [2] is given as “antagonizes”. The “displacement of [^3 H]-SR 48692” value (type-1 receptor; [13]) was “completely displaces”, the “displacement of [^125 I]-neurotensin” value (type-1 receptor; [13]) was “completely displaces” and the affinity (type-1 receptor; type-1 receptor (Gully et al.)) was “of the order of a nanomole”. For the same compound, the “antagonism of neurotensin mobilization of intracellular calcium ions” value (NT-1R) was “antagonizes”, the “effect on analgesia induced by NT” value (analgesia induced by NT [5]) was “antagonizes” and the “effect on analgesia induced by NT” value (analgesia induced by NT [6]) was “antagonizes”. For the same compound, the “antagonism of neurotensin effect: release of acetylcholine” value [10] was “antagonizes” and the “effect on hypothermia induced by NT” value [7] was “antagonizes”.

With `COc1cccc(OC)c1-c1cc(C(=O)NC2(C(=O)O)C3CC4CC(C3)CC2C4)nn1-c1ccc(C(=O)N(C)CCCN(C)C)cc1C(C)C` (centres unmarked) [SR142948] the “increase in IP3” value (hNT-R2 [11]) was “slight and transient (20-second) increase” and the “intracellular concentration of Ca^2+ response” value (hNT-R2 [1]) was “significant response”.
